Results taken from patent US12448392B2, “Spiropiperidine derivatives” (89BIO LTD, priority 2016, dated 2025).
Counter-ions that a name gives are not always drawn. Like-named read-outs stand apart in the source and are kept apart here.

Target: T1, recombinant human baculovirus-expressed GST-tagged FASN (Homo sapiens, UniProt P49327)
T1 construct: GST
Assay: biochemical

[1] = 5 nM FASN, 150 μM NADPH, 10 μM acetyl-CoA, 25 μM malonyl-CoA, 90 minutes incubation, read-out: IC50 data for Compounds of Formula I, Activity

T1 sequence (P49327 whole entry): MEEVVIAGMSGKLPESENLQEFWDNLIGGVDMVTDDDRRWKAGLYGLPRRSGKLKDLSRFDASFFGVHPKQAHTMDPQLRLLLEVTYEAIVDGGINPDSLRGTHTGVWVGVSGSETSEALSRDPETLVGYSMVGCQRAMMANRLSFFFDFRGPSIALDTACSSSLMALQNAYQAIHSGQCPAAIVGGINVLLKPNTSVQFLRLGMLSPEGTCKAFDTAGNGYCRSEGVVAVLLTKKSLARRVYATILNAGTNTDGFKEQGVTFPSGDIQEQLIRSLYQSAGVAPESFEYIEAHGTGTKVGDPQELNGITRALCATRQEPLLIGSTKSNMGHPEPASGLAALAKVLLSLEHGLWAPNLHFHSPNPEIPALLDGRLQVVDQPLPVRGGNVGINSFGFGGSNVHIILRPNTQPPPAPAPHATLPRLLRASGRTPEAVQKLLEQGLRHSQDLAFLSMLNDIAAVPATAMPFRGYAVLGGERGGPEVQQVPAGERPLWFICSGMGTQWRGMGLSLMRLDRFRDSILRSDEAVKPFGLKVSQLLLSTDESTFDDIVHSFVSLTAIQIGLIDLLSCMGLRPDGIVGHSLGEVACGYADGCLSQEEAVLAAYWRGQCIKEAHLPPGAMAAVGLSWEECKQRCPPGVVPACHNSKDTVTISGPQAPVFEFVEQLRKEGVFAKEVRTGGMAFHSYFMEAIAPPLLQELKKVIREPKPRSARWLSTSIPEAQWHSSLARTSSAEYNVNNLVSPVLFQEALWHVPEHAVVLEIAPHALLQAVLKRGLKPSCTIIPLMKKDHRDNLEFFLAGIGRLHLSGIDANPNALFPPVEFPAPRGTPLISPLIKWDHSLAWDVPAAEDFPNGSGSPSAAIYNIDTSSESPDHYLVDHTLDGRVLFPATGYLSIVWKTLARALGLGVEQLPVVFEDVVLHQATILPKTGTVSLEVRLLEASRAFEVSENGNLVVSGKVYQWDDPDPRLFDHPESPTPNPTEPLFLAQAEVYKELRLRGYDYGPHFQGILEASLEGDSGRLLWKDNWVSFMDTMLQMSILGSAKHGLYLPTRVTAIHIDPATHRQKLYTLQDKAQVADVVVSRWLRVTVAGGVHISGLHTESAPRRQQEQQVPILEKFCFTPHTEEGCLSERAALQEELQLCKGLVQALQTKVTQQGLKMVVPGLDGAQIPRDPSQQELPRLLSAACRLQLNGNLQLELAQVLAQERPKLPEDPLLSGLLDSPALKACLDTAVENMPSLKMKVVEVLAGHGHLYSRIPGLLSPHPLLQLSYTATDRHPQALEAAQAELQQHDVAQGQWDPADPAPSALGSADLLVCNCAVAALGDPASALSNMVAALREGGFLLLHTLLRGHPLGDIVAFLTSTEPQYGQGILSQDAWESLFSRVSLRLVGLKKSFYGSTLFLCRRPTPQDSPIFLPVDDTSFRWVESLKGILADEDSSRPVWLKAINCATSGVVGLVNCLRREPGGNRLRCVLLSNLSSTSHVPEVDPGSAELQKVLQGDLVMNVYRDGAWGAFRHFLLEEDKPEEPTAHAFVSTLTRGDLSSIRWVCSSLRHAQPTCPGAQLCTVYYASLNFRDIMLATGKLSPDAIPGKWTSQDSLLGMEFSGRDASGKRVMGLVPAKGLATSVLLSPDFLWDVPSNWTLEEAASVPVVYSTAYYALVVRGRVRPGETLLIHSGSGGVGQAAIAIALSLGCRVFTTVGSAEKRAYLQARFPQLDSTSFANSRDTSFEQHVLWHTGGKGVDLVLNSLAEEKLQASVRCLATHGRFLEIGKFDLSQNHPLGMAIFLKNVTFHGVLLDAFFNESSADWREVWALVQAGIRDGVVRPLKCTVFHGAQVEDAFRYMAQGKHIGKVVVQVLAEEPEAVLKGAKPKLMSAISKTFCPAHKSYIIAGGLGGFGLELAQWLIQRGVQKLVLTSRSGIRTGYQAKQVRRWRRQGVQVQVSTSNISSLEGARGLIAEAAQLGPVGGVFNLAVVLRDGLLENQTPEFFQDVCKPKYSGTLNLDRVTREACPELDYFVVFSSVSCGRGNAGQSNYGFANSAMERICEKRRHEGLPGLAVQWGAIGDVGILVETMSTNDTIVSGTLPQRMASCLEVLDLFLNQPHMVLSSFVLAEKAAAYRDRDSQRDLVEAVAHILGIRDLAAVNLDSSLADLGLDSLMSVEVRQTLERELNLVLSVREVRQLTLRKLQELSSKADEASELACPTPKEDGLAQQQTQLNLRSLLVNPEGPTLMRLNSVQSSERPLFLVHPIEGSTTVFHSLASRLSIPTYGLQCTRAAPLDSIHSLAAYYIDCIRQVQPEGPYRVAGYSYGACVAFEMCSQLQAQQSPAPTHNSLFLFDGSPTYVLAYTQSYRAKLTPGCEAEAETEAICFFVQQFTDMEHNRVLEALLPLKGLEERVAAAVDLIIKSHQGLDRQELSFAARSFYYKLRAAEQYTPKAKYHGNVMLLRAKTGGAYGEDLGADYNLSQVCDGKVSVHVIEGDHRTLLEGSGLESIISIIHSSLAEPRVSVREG

Structure (SMILES)	IC50 [1]	IC50
CCC(=O)N1CCC2(C=Cc3cc(-c4cnc5ccccc5c4)ccc3O2)CC1 [Example 43, 1-[6-(3-Quinolyl)spiro[chromene-2,4′-piperidine]-1′-yl]propan-1-one]	1 to 99 nM	
Cc1c(-c2ccc3c(c2)CCC2(CCN(C(=O)NOC(C)C)CC2)O3)ccc2nccn12 [Example 108, N-Isopropoxy-6-(5-methylimidazo[1,2-a]pyridin-6-yl)spiro[chromane-2,4′-piperidine]-1′-carboxamide]	1 to 99 nM	
CONC(=O)N1CCC2(CC1)OCc1cc(-c3ccc4c(C)nccc4c3)ccc1O2 [Example 195, N-methoxy-6-(1-methyl-6-isoquinolyl)spiro[4H-1,3-benzodioxine-2,4′-piperidine]-1′-carboxamide]		1 to 99 nM
Cc1c(-c2ccc3c(c2)CCC2(CCN(C(=O)NO)CC2)O3)cnc2ccccc12 [Example 191, 6-(4-Methyl-3-quinolyl)spiro[chromane-2,4′-piperidine]-1′-carbohydroxamic acid]	100 to 999 nM	
CCNC(=O)N1CCC2(CC1)Cc1cc(-c3ccc4ccnn4c3C)ccc1O2 [Example 165, N-Ethyl-5-(7-methylpyrazolo[1,5-a]pyridin-6-yl)spiro[3H-benzofuran-2,4′-piperidine]-1′-carboxamide]	1000 to 10000 nM	
COC(=O)N1CCC2(CC1)CC(=O)c1cc(-c3cnc4ccccc4c3)ccc1O2 [Example 39, Methyl 4-oxo-6-(3-quinolyl)spiro[chromane-2,4′-piperidine]-1′-carboxylate]	1000 to 10000 nM	
Cc1nccc2cc(-c3ccc4c(c3)COC3(CCN(C(=O)[C@H]5CCCO5)CC3)O4)ccc12 [Example 23, [6-(1-Methyl-6-isoquinolyl)spiro[4H-1,3-benzodioxine-2,4′-piperidine]-1′-yl]-[(2R)-tetrahydrofuran-2-yl]methanone]		1 to 99 nM
CCC(=O)N1CCC2(CCc3cc(-c4ccc5cccnc5c4Cl)ccc3O2)CC1 [Example 9, 1-[6-(8-chloro-7-quinolyl)spiro[chromane-2,4′-piperidine]-1′-yl]propan-1-one]	1 to 99 nM	
CCONC(=O)N1CCC2(CC1)OCc1cc(-c3ccc4c(C)nccc4c3)ccc1O2 [Example 196, N-Ethoxy-6-(1-methyl-6-isoquinolyl)spiro[4H-1,3-benzodioxine-2,4′-piperidine]-1′-carboxamide]		1 to 99 nM
CCONC(=O)N1CCC2(CCc3cc(-c4ccc5cccnc5c4C)ccc3O2)CC1 [Example 101, N-Ethoxy-6-(8-methyl-7-quinolyl)spiro[chromane-2,4′-piperidine]-1′-carboxamide]	1 to 99 nM	
O=C(CO)N1CCC2(CCc3cc(-c4ccc5cccnc5c4Cl)ccc3O2)CC1 [Example 67, 1-[6-(8-chloro-7-quinolyl)spiro[chromane-2,4′-piperidine]-1′-yl]-2-hydroxy-ethanone]	1000 to 10000 nM	
Cc1c(-c2ccc3c(C)nccc3c2)ccc2c1CCC1(CCN(C(N)=O)CC1)O2 [Example 241, 5-methyl-6-(1-methyl-6-isoquinolyl)spiro[chromane-2,4′-piperidine]-1′-carboxamide]	1000 to 10000 nM	
Cc1nccc2cc(-c3ccc4c(c3)CCC3(CCN(C(=O)NCC(C)C)CC3)O4)ccc12 [Example 178, N-Isobutyl-6-(1-methyl-6-isoquinolyl)spiro[chromane-2,4′-piperidine]-1′-carboxamide]	1 to 99 nM	
NC(=O)N1CCC2(CCc3cc(-c4cnc5sccc5c4)ccc3O2)CC1 [Example 85, 6-Thieno[2,3-b]pyridin-5-ylspiro[chromane-2,4′-piperidine]-1′-carboxamide]	1000 to 10000 nM	
O=C(C1CC1)N1CCC2(CC1)CC(O)c1cc(-c3cnc4ccccc4c3)ccc1O2 (stereo not shown) [Example 46, Cyclopropyl-[4-hydroxy-6-(3-quinolyl)spiro[chromane-2,4′-piperidine]-1′-yl]methanone]	100 to 999 nM	
CC(C)ONC(=O)N1CCC2(CCc3cc(-c4ccc5nccn5c4Cl)ccc3O2)CC1 [Example 179, 6-(5-Chloroimidazo[1,2-a]pyridin-6-yl)-N-isopropoxy-spiro[chromane-2,4′-piperidine]-1′-carboxamide]	1 to 99 nM	
NC(=O)N1CCC2(CCc3cc(-c4ccc5cccnc5c4Cl)ccc3O2)CC1 [Example 63, 6-(8-Chloro-7-quinolyl)spiro[chromane-2,4′-piperidine]-1′-carboxamide]	1 to 99 nM	
Cc1cccc2cc(-c3ccc4c(c3)CCC3(CCN(C(=O)C5CC5)CC3)O4)cnc12 [Example 13, Cyclopropyl-[6-(8-methyl-3-quinolyl)spiro[chromane-2,4′-piperidine]-1′-yl]-methanone, HCl]	100 to 999 nM	
Cc1nccc2cc(-c3ccc4c(c3)COC3(CCN(C(=O)NO)CC3)O4)ccc12 [Example 199, 6-(1-Methyl-6-isoquinolyl)spiro[4H-1,3-benzodioxine-2,4′-piperidine]-1′-carbohydroxamic acid]		1000 to 10000 nM
CCNC(=O)N1CCC2(CC1)OCc1cc(-c3ccc4cnc(C)cc4c3)ccc1O2 [Example 202, N-Ethyl-6-(3-methyl-6-isoquinolyl)spiro[4H-1,3-benzodioxine-2,4′-piperidine]-1′-carboxamide]		1 to 99 nM

Structure (SMILES)	IC50 [1]	IC50
CCONC(=O)N1CCC2(CC1)Cc1cc(-c3ccc4ccnn4c3C)ccc1O2 [Example 169, N-Ethoxy-5-(7-methylpyrazolo[1,5-a]pyridin-6-yl)spiro[3H-benzofuran-2,4′-piperidine]-1′-carboxamide]	1000 to 10000 nM	
Cc1cc2cc(-c3ccc4c(c3)COC3(CCN(C(=O)NO)CC3)O4)ccc2cn1 [Example 204, 6-(3-Methyl-6-isoquinolyl)spiro[4H-1,3-benzodioxine-2,4′-piperidine]-1′-carbohydroxamic acid]		100 to 999 nM
CCNC(=O)N1CCC2(CC1)Cc1cc(-c3ccc4cccnc4c3OC)ccc1O2 [Example 163, N-Ethyl-5-(8-methoxy-7-quinolyl)spiro[3H-benzofuran-2,4′-piperidine]-1′-carboxamide]	1000 to 10000 nM	
Cc1c(-c2ccc3c(c2)CC2(CCN(C(N)=O)CC2)O3)cnc2ccccc12 [Example 159, 5-(4-Methyl-3-quinolyl)spiro[3H-benzofuran-2,4′-piperidine]-1′-carboxamide]	1000 to 10000 nM	
Cc1c(-c2ccc3c(c2)CCC2(CCN(C(=O)C4CC4)CC2)O3)ccc2nccn12 [Example 27, Cyclopropyl-[6-(5-methylimidazo[1,2-a]pyridin-6-yl)spiro[chromane-2,4′-piperidine]-1′-yl]methanone]	100 to 999 nM	
Cn1ccc2cc(-c3ccc4c(c3)CCC3(CCN(C(N)=O)CC3)O4)ccc21 [Example 75, 6-(1-Methylindol-5-yl)spiro[chromane-2,4′-piperidine]-1′-carboxamide]	100 to 999 nM	
O=C([C@H]1CCCO1)N1CCC2(CCc3cc(-c4ccc5c(C6CC6)nccc5c4)ccc3O2)CC1 [Example 5, [6-(1-Cyclopropyl-6-isoquinolyl)spiro[chromane-2,4′-piperidine]-1′-yl]-[(2R)-tetrahydrofuran-2-yl]methanone]	1 to 99 nM	
COc1c(-c2ccc3c(c2)CCC2(CCN(C(=O)C4CC4)CC2)O3)ccc2cccnc12 [Example 15, Cyclopropyl-[6-(8-methoxy-7-quinolyl)spiro[chromane-2,4′-piperidine]-1′-yl]-methanone, HCl]	1 to 99 nM	
NC(=O)N1CCC2(CCc3cc(-c4cc5ccccc5[nH]4)ccc3O2)CC1 [Example 236, 6-(1H-Indol-2-yl)spiro[chromane-2,4′-piperidine]-1′-carboxamide]	1000 to 10000 nM	
CCNC(=O)N1CCC2(CCc3cc(-c4ccc5ccnn5c4C)ccc3O2)CC1 [Example 112, N-Ethyl-6-(7-methylpyrazolo[1,5-a]pyridin-6-yl)spiro[chromane-2,4′-piperidine]-1′-carboxamide]	1 to 99 nM	
CCONC(=O)N1CCC2(CC1)Cc1cc(-c3ccc4cccnc4c3OC)ccc1O2 [Example 167, N-Ethoxy-5-(8-methoxy-7-quinolyl)spiro[3H-benzofuran-2,4′-piperidine]-1′-carboxamide]	1000 to 10000 nM	
CCC(=O)N1CCC2(CCc3cc(-c4cc(C)c5ncccc5c4)ccc3O2)CC1 [Example 17, 1-[6-(8-Methyl-6-quinolyl)spiro[chromane-2,4′-piperidine]-1′-yl]propan-1-one, HCl]	100 to 999 nM	
CCONC(=O)N1CCC2(CCc3cc(-c4ccc5c(C)nccc5c4)ccc3O2)CC1 [Example 185, N-ethoxy-6-(1-methyl-6-isoquinolyl)spiro[chromane-2,4′-piperidine]-1′-carboxamide]	1 to 99 nM	
CC(=O)OCC(=O)N1CCC2(CC1)OCc1cc(-c3ccc4cccnc4c3C)ccc1O2 [Example 60, [2-[6-(8-methyl-7-quinolyl)spiro[4H-1,3-benzodioxine-2,4′-piperidine]-1′-yl]-2-oxo-ethyl]acetate]		100 to 999 nM
COc1c(-c2ccc3c(c2)CC2(CCN(C(N)=O)CC2)O3)ccc2cccnc12 [Example 162, 5-(8-Methoxy-7-quinolyl)spiro[3H-benzofuran-2,4′-piperidine]-1′-carboxamide]	1000 to 10000 nM	
COc1c(-c2ccc3c(c2)CC2(CCN(C(=O)NO)CC2)O3)ccc2cccnc12 [Example 173, 5-(8-Methoxy-7-quinolyl)spiro[3H-benzofuran-2,4′-piperidine]-1′-carbohydroxamic acid]	1000 to 10000 nM	
O=C([C@H]1CCCO1)N1CCC2(CC1)OCc1cc(-c3cnc4ccccc4c3)ccc1O2 [Example 48, [6-(3-Quinolyl)spiro[4H-1,3-benzodioxine-2,4′-piperidine]-1′-yl]-[(2R)-tetrahydrofuran-2-yl]methanone]		1 to 99 nM
CONC(=O)N1CCC2(CCc3cc(-c4ccc5ccnn5c4C)ccc3O2)CC1 [Example 124, N-Methoxy-6-(7-methylpyrazolo[1,5-a]pyridin-6-yl)spiro[chromane-2,4′-piperidine]-1′-carboxamide]	1 to 99 nM	
CONC(=O)N1CCC2(CCc3cc(-c4ccc5cccnc5c4OC)ccc3O2)CC1 [Example 210, N-Methoxy-6-(8-methoxy-7-quinolyl)spiro[chromane-2,4′-piperidine]-1′-carboxamide]	1 to 99 nM	
NC(=O)N1CCC2(CCc3cc(-c4ccc5ocnc5c4)ccc3O2)CC1 [Example 86, 6-(1,3-Benzoxazol-5-yl)spiro[chromane-2,4′-piperidine]-1′-carboxamide]	1000 to 10000 nM	
